Experimental data as given in patent US11919872B1, “N′-(2-(5-(4-chlorophenyl)-1,3,4-oxadiazol-2-ylthio)acetoxy)benzimidamide as an antimicrobial compound” (KING FAISAL UNIVERSITY, priority 2023, dated 2024).
Values joined by “and” are separate entries in the source; they are usually repeats but may differ in a detail not shown here. Equal entries are not always repeated.

Tests used:
[1] = tested on: Chrysosporium keratinophilum; assay: Agar plate disc-diffusion, antifungal inhibition zone; format: cell-based; conditions: Sabouraud's dextrose agar, 37° C., 72 hours
Method: (§1) The agar plate disc-diffusion method was applied. Sterilized filter papers (6 mm in diameter) were wetted with 10 μL of a solution of N′-(2-(5-(4-chlorophenyl)-1,3,4-oxadiazol-2-ylthio)acetoxy)benzimidamide (3) to be tested, containing 10 mg/mL in DMSO, and the discs were allowed to air dry. The discs were then placed onto the surface of agar plates (nutrient agar for bacteria and Sabouraud's dextrose agar for fungi) seeded with the test organism. Each plate contained 15 mL of the agar medium, previously seeded with 0.2 mL of the broth culture of each organism pregrown for 18 hours. The plates were incubated at 37° C. for 48 hours and 72 hours for fungi. The inhibition zones were measured in mm. Discs impregnated with DMSO were used as a control, and their inhibition zone was subtracted from the tested compound's actual inhibition zone.

Aspergillus flavus = assay: as above; format: cell-based; conditions: Sabouraud's dextrose agar, 37° C., 72 hours
Method: as §1

Escherichia coli = assay: Agar plate disc-diffusion, antibacterial inhibition zone; format: cell-based; conditions: nutrient agar, 37° C., 48 hours
Method: as §1

Bacillus cereus = assay: as above; format: cell-based; conditions: nutrient agar, 37° C., 48 hours
Method: as §1

Pseudomonas aeruginosa = assay: as above; format: cell-based; conditions: nutrient agar, 37° C., 48 hours
Method: as §1

Staphylococcus aureus = assay: as above; format: cell-based; conditions: nutrient agar, 37° C., 48 hours
Method: as §1

[2] = A = concentration of comp. = 10,000 μg/mL
[3] = B = concentration of comp. = 30,000 μL
[4] = C = concentration of comp. = 50,000 μL
[5] = A = concentration of comp. = 10,000 μL

Structure (SMILES) | inhibition zone, Chrysosporium keratinophilum [1, 2] | inhibition zone, Chrysosporium keratinophilum [1, 3] | inhibition zone, Chrysosporium keratinophilum [1, 4] | inhibition zone, Aspergillus flavus (Aspergillus flavus; [2]) | inhibition zone, Aspergillus flavus (Aspergillus flavus; [3]) | inhibition zone, Aspergillus flavus (Aspergillus flavus; [4]) | inhibition zone, Escherichia coli (Escherichia coli; [5]) | inhibition zone, Escherichia coli (Escherichia coli; [3]) | inhibition zone, Escherichia coli (Escherichia coli; [4]) | inhibition zone, Bacillus Cereus (Bacillus cereus; [5]) | inhibition zone, Bacillus Cereus (Bacillus cereus; [3]) | inhibition zone, Bacillus Cereus (Bacillus cereus; [4]) | inhibition zone, Pseudomonas aeruginosa (Pseudomonas aeruginosa; [5]) | inhibition zone, Pseudomonas aeruginosa (Pseudomonas aeruginosa; [3]) | inhibition zone, Pseudomonas aeruginosa (Pseudomonas aeruginosa; [4]) | inhibition zone, Staphylococcus aureus (Staphylococcus aureus; [5]) | inhibition zone, Staphylococcus aureus (Staphylococcus aureus; [3]) | inhibition zone, Staphylococcus aureus (Staphylococcus aureus; [4]) | melting point
O=C(O)c1cn(C2CC2)c2cc(N3CCNCC3)c(F)cc2c1=O [Cip., ciprofloxacin, reference compound] | 29 mm | 30 mm | 53 mm | 29 mm | 30 mm | 42 mm | 30 mm | 39 mm | 60 mm | 29 mm | 30 mm | 42 mm | 29 mm | 30 mm | 53 mm | 43 mm | 44 mm | 53 mm | –
N/C(=N\OC(=O)CSc1nnc(-c2ccc(Cl)cc2)o1)c1ccccc1 [Compound 3, N′-(2-(5-(4-chlorophenyl)-1,3,4-oxadiazol-2-ylthio)acetoxy)benzimidamide] | 24 mm | 29 mm | 50 mm | 27 mm | 29 mm | 38 mm | 22 mm | 33 mm | 46 mm | 27 mm | 29 mm | 40 mm | 25 mm | 29 mm | 50 mm | 38 mm | 42 mm | 52 mm | ~ 174 °C and 174 °C
